From article PMC9681730, “DeepPROTACs is a deep learning-based targeted degradation predictor for PROTACs” (Nature Communications, 2022)
pKd: −log10 of the molar value.

Key:
VHL = target: T1, VHL (Homo sapiens, UniProt P40337); assay: ITC (reverse titration, purified VCB complex); format: binding
T1 construct: VHL (aa 54-213) in His-tagged VCB complex with EloB (aa 1-104) and EloC (aa 1-112); with EloB and EloC (VCB complex)

[1] = target: T2, ERα-LBD (estrogen receptor, ER) (Homo sapiens, UniProt P03372); assay: ITC (reverse titration, purified ERα-LBD); format: binding
T2 construct: gene ESR1; ERα-LBD (aa 298–554)
T2 sequence (P03372 298-554): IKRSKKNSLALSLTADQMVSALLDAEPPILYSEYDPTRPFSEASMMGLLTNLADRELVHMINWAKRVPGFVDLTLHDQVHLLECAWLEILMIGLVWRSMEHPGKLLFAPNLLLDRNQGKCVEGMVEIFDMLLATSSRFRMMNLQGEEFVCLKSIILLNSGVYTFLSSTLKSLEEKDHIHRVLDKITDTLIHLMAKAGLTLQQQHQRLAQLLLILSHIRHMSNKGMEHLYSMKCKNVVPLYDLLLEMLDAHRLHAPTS

T1 sequence (P40337 54-213): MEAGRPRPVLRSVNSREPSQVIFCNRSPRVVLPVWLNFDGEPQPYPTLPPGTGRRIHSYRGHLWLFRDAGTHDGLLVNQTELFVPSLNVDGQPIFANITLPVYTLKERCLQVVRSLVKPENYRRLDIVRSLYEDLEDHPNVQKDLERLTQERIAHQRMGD
T1 sequence (Q15370 1-104 partner): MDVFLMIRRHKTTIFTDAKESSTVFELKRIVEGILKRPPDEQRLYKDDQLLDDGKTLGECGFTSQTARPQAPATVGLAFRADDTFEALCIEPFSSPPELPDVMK
T1 sequence (Q15369 whole entry partner, the tested form may be a part): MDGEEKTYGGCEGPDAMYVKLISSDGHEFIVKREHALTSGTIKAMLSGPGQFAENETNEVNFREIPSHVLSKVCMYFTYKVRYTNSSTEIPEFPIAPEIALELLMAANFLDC

Cc1ncsc1-c1ccc(CNC(=O)[C@@H]2C[C@@H](O)CN2C(=O)[C@@H](NC(=O)CCCCCCCCCC(=O)NCCOc2ccc(C(=C(CCCl)c3ccccc3)c3ccc(O)cc3)cc2)C(C)(C)C)cc1 [PROTAC 8]
pKd (VHL): 5.36
pKd [1]: 5.67
